The results in this text go back to patent US10709697B2, “Bis-amines, compositions, and uses related to CXCR4 inhibition” (Emory University, priority 2015, dated 2020).

In one assay the target is T1, CXCR4 (Homo sapiens, UniProt P61073).
T1 construct: endogenous in cells; host or cells: MDA-MB-231
Briefly: Primary binding affinity screening (competition with biotinylated TN14003). The protocol: The compounds were initially screened with a binding affinity assay. […] MDA-MB-231 cells were pre-incubated with compounds at concentrations of 1, 10, 100, and 1000 nM, then incubated with biotinylated TN14003 and streptavidin-conjugated rhodamine to determine the binding efficiency of the new compounds to the CXCL12 binding domain of CXCR4. […] Thus, this screening is a semi-quantitative, first pass measure of the level of activity.
For binding affinity assay, 2×10^4 MDA-MB-231 cells in 300 μL of cell culture medium were seeded in an 8-well slide chamber 2 days before the experiments were conducted. Various concentrations of different compounds (1, 10, 100, or 1000 nM) were added to the separate wells and incubated for 10 min at room temperature, and then the cells were fixed in 4% ice-cold paraformaldehyde. The cells were rehydrated in phosphate-buffered saline (PBS). The slides were subsequently incubated for 30 min at room temperature with 0.05 μg/mL biotinylated TN14003, washed three times with PBS, and incubated in streptavidin-rhodamine (1:150 dilution; Jackson ImmunoResearch Laboratories, West Grove, Pa.) for 30 min at room temperature. Finally, the slides were washed with PBS and mounted in an anti-fade mounting solution (Molecular Probes, Eugene, Oreg.), and the samples were analyzed on a Nikon Eclipse E800 microscope.

Assay [1] relates to CXCR4/CXCL12-mediated chemotaxis and invasion. The assay can be described thus: Matrigel invasion assay. It counts as cell-based. The following applies: for Invasion: Table 3, concentration used 100 nM; for inhibition at 0.1 µM: single concentration of 100 nM, CXCL12 as chemoattractant, FIG. 2, read-out: inhibitory rate, Matrigel invasion; for Invasion Assay: Table 2. The text has this:
To model in vitro metastasis, a Matrigel® invasion assay was used as the functional assay. […] A layer of Matrigel® matrix-coated permeable support (8 μm pore diameter) separates the upper and lower chambers.

Where [2] appears, read: effective concentration = lowest concentration with significant reduction of rhodamine fluorescence, MDA-MB-231 cells, tested at 1, 10, 100, 1000 nM.

T1 sequence (P61073 whole entry): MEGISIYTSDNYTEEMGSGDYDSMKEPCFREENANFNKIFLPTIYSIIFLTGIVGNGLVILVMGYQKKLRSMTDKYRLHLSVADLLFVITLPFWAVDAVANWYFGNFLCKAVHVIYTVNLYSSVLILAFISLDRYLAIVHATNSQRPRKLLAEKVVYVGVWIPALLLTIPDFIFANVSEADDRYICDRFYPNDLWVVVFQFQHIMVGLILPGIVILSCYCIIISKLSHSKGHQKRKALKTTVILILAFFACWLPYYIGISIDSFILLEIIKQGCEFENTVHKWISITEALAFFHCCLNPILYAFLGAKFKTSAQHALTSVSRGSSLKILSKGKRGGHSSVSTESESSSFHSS

Consider `c1cc(CN2CCCNCCNCCCNCC2)ccc1CN1CCCNCCNCCCNCC1` [AMD3100, reference compound], for which the EC on CXCR4 (Table 3) and on CXCR4 (setting [2]) was 1000 nM each time. The Invasion in assay [1] is listed as 62%.
As for `CN(Cc1cccc(Cl)c1)Cc1cccc(CN(C)Cc2cccc(Cl)c2)n1` [IIg, N,N′-(Pyridine-2,6-diylbis(methylene))bis(1-(3-chlorophenyl)-N-methylmethanamine)], the EC at CXCR4 (setting [2]) was 10 nM. In assay [1], the inhibition at 0.1 µM is 88.6%.
At CXCR4 (setting [2]), `CN(Cc1cccc(CN(C)Cc2ccccc2F)n1)Cc1ccccc1F` [IIh, N,N′-(Pyridine-2,6-diylbis(methylene))bis(1-(2-fluorophenyl)-N-methylmethanamine)] had an EC of 1000 nM.
The same measure, in the same setting: for `c1ccc(CN(Cc2ccc(CN(Cc3ccccc3)CC3CC3)cc2)CC2CC2)cc1` [Im, N,N′-(1,4-Phenylenebis(methylene))bis(N-benzyl-1-cyclopropylmethanamine)] the value was 1000 nM.
`CN(Cc1cccnc1)Cc1cccc(CN(C)Cc2cccnc2)n1` [IIo, N,N′-(Pyridine-2,6-diylbis(methylene))bis(N-methyl-1-(pyridin-3-yl)methanamine)] displayed an EC at CXCR4 (setting [2]) of more than 1000 nM.
The same measure, in the same setting: for `CN(Cc1cccc(F)c1)Cc1cccc(CN(C)Cc2cccc(F)c2)n1` [IIi, N,N′-(Pyridine-2,6-diylbis(methylene))bis(1-(3-fluorophenyl)-N-methylmethanamine)] the value was more than 1000 nM.
Compound `Fc1cccc(NCc2ccc(CNc3cccc(F)c3)nc2)c1` [2,5-pyridine H 3-F Phenyl, N,N′-(Pyridine-2,5-diylbis(methylene))bis(3-fluoroaniline)] had an EC at CXCR4 (Table 2) of 10 nm. Moreover, in assay [1], the “Invasion Assay” value is on record as 50%.
Turning to `COc1cccc(CN(C)Cc2ccc(CN(C)Cc3cccc(OC)c3)cc2)c1` [Ik, N,N′-(1,4-Phenylenebis(methylene))bis(1-(3-methoxyphenyl)-N-methylmethanamine)], on CXCR4 (setting [2]), the EC is 10 nM. The inhibition at 0.1 µM in assay [1] is less than 50%.
For the compound `CN(Cc1ccncc1)Cc1cccc(CN(C)Cc2ccncc2)n1` [IIp, N,N′-(Pyridine-2,6-diylbis(methylene))bis(N-methyl-1-(pyridin-4-yl)methanamine)], the EC at CXCR4 (setting [2]) is recorded as more than 1000 nM.
For the compound `c1ccc(CN(Cc2cccc(CN(Cc3ccccc3)CC3CC3)n2)CC2CC2)cc1` [IIm, N,N′-(Pyridine-2,6-diylbis(methylene))bis(N-benzyl-1-cyclopropylmethanamine)], the EC at CXCR4 (setting [2]) was 1 nM. Also, the inhibition at 0.1 µM in assay [1] is 100%.
Turning to `CN(Cc1ccc(CN(C)Cc2cccc(Cl)c2)cc1)Cc1cccc(Cl)c1` [Ig, N,N′-(1,4-Phenylenebis(methylene))bis(1-(3-chlorophenyl)-N-methylmethanamine)], at CXCR4 (setting [2]), the EC is 1000 nM.
The compound `CCN(Cc1ccccc1)Cc1cccc(CN(CC)Cc2ccccc2)n1` [IIl, N,N′-(Pyridine-2,6-diylbis(methylene))bis(N-benzylethanamine)] showed an EC on CXCR4 (setting [2]) of more than 1000 nM.
The same measure, in the same setting: with `CN(Cc1ccc(CN(C)Cc2ccccc2F)cc1)Cc1ccccc1F` [Ih, N,N′-(1,4-Phenylenebis(methylene))bis(1-(2-fluorophenyl)-N-methylmethanamine)] the figure was more than 1000 nM; with `CN(Cc1ccc(F)cc1)Cc1cccc(CN(C)Cc2ccc(F)cc2)n1` [IIj, N,N′-(Pyridine-2,6-diylbis(methylene))bis(1-(4-fluorophenyl)-N-methylmethanamine)], 1000 nM.
As for `Cc1cccc(NCc2ccc(CNc3cccc(C)c3)nc2)c1` [N,N′-(Pyridine-2,5-diylbis(methylene))bis(3-methylaniline)], the EC at CXCR4 (Table 2) was determined as 100 nm. The EC on CXCR4 (Table 3) is 1 nM. In assay [1], the “Invasion Assay” value is listed as 60.2% and the Invasion worked out at 58%.
For the compound `CN(Cc1ccc(CN(C)Cc2ccccc2Cl)cc1)Cc1ccccc1Cl` [If, N,N′-(1,4-Phenylenebis(methylene))bis(1-(2-chlorophenyl)-N-methylmethanamine)], the EC on CXCR4 (setting [2]) was more than 1000 nM.
For the compound `CCN(Cc1ccccc1)Cc1ccc(CN(CC)Cc2ccccc2)cc1` [Il, N,N′-(1,4-Phenylenebis(methylene))bis(N-benzylethanamine)], the EC at CXCR4 (setting [2]) came to 1000 nM.
Turning to `CCc1ccc(NCc2ccc(CNc3ccc(CC)cc3)nc2)cc1` [2,5-pyridine H 4-Et Phenyl, N′-(Pyridine-2,5-diylbis(methylene))bis(4-ethylaniline)], the EC on CXCR4 (Table 2) is recorded as 1 nm. In assay [1], the “Invasion Assay” value was 64%.
At CXCR4 (setting [2]), `CN(Cc1cccc(CN(C)c2ccc(F)cc2)n1)c1ccc(F)cc1` [IIe, N,N′-(Pyridine-2,6-diylbis(methylene))bis(4-fluoro-N-methylaniline)] gave an EC of 1000 nM. Moreover, the inhibition at 0.1 µM in assay [1] is less than 50%.
At CXCR4 (setting [2]), `CN(Cc1ccc(CN(C)Cc2cccnc2)cc1)Cc1cccnc1` [Io, N,N′-(1,4-Phenylenebis(methylene))bis(N-methyl-1-(pyridin-3-yl)methanamine)] registered an EC of more than 1000 nM.
For `c1cc(CN2CCCC2)nc(CN2CCCC2)c1` [IIa, 2,6-Bis(pyrrolidin-1-ylmethyl)pyridine], the EC at CXCR4 (setting [2]) is 1 nM.
For the compound `c1cc(CN2CCOCC2)nc(CN2CCOCC2)c1` [IIc, 2,6-Bis(morpholinomethyl)pyridine], the EC at CXCR4 (setting [2]) turned out to be 100 nM. The inhibition at 0.1 µM in assay [1] stood at 68.9%.
`CN(Cc1ccc(CN(C)Cc2cccc(F)c2)cc1)Cc1cccc(F)c1` [Ii, N,N′-(1,4-Phenylenebis(methylene))bis(1-(3-fluorophenyl)-N-methylmethanamine)]: the EC on CXCR4 (setting [2]) is more than 1000 nM.
Still for that read-out and setting: with `CN(Cc1ccncc1)Cc1ccc(CN(C)Cc2ccncc2)cc1` [Ip, N,N′-(1,4-Phenylenebis(methylene))bis(N-methyl-1-(pyridin-4-yl)methanamine)] the figure was more than 1000 nM.
In the case of `c1cc(CN2CCCC2)ccc1CN1CCCC1` [Ia, 1,4-Bis(pyrrolidin-1-ylmethyl)benzene], at CXCR4 (setting [2]), the EC was 1000 nM.
Turning to `c1cc(CN2CCCCC2)nc(CN2CCCCC2)c1` [IIb, 2,6-Bis(piperidin-1-ylmethyl)pyridine], at CXCR4 (setting [2]), the EC worked out at 1 nM. Further, the inhibition at 0.1 µM in assay [1] is 65.3%.
The compound `CN(Cc1cccc(CN(C)Cc2ccccc2Cl)n1)Cc1ccccc1Cl` [IIf, N,N′-(Pyridine-2,6-diylbis(methylene))bis(1-(2-chlorophenyl)-N-methylmethanamine)] registered an EC at CXCR4 (setting [2]) of more than 1000 nM.
On the same count and under the same terms, with `CN(Cc1ccc(CN(C)Cc2ccccn2)cc1)Cc1ccccn1` [In, N,N′-(1,4-Phenylenebis(methylene))bis(N-methyl-1-(pyridin-2-yl)methanamine)] the figure was more than 1000 nM.
